Tests used:
GALAP (Galium aparine) = test: Preemergence herbicidal evaluation; format: in vivo; details: preemergence, rated 4-5 weeks after treatment
In short: (§1)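 Visual 0-9 rating versus untreated control, taken four to five weeks post-treatment, scoring stand, vigor, malformation, size, chlorosis and overall appearance. Compound applied as aqueous acetone spray to freshly seeded soil cups, then kept under standard greenhouse care.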

ZEAMX (Corn, Field) = test: Postemergence herbicidal evaluation; format: in vivo, Zea mays, L.
In short: (§2)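 Visual 0–9 injury scores versus control plants, covering stand, vigour, malformation, size, chlorosis and general appearance, taken four to five weeks post-spray and averaged over replicate tests. Plants were sprayed at roughly two weeks old and held on greenhouse benches.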

[1] = system: TRZAWR (Wheat, Winter, cv Riband); test: Postemergence herbicidal evaluation; format: in vivo, Triticum aestivum
In short: as §2

SETVI (Setaria viridis) [2] = test: Postemergence herbicidal evaluation; format: in vivo, (L.) Beau
In short: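 Ratings use a 0-9 visual scale covering stand, vigor, malformation, size, chlorosis and appearance versus a control, scored 4-5 weeks post-spray. Roughly two-week-old seedlings received about 0.0040-1.000 kg/ha active, applied in 50/50 acetone/water with 0.5% TWEEN 20. Multiple tests per compound were averaged.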

SETVI (Setaria viridis) [3] = test: Preemergence herbicidal evaluation; format: in vivo, (L.) Beau; details: preemergence, rated 4-5 weeks after treatment
In short: as §1

[4] = system: ECHCG (Echinochloa crus-galli); test: Preemergence herbicidal evaluation; format: in vivo, (L.) Beau; details: preemergence, rated 4-5 weeks after treatment
In short: as §1

[5] = system: TRZAWR (Wheat, Winter, cv Riband); test: Preemergence herbicidal evaluation; format: in vivo, Triticum aestivum; details: preemergence, rated 4-5 weeks after treatment
In short: as §1

[6] = system: IPOHE (Ipomoea hederacea); test: Postemergence herbicidal evaluation; format: in vivo, (L.) Jacq.
In short: as §2

ORYSAT (Rice, Tebonnet) [7] = test: Preemergence herbicidal evaluation; format: in vivo, Oryza sativa, (L.) Tebonnet; details: preemergence, rated 4-5 weeks after treatment
[8] = system: CHEAL (Chenopodium album); test: Preemergence herbicidal evaluation; format: in vivo, L.; details: preemergence, rated 4-5 weeks after treatment
In short: as §1

[9] = system: CASOB (Cassia obtusifolia); test: Preemergence herbicidal evaluation; format: in vivo, L.; details: preemergence, rated 4-5 weeks after treatment
In short: as §1

[10] = system: AMBEL (Ambrosia artemisifolia); test: Preemergence herbicidal evaluation; format: in vivo, L.; details: preemergence, rated 4-5 weeks after treatment
In short: as §1

[11] = system: ECHORC (Echinochloa oryzoides); test: Flooded paddy, preemergence weed control; format: in vivo, Echinochloa oryzoides (Ard.) Fritsch.; details: rated 3-4 weeks after treatment, 0-9 rating scale
In short: (§3)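 Preemergence, flooded: propagules planted at 0.5 cm depth in silt loam, water level maintained at 1.5 to 3 cm over soil, containers kept on greenhouse benches. Activity scored 0-9 by eye relative to a control plant.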

[12] = system: ABUTH (Abutilon theophrasti); test: Preemergence herbicidal evaluation; format: in vivo, Medic.; details: preemergence, rated 4-5 weeks after treatment
[13] = system: CYPSE (Cyperus serotinus); test: Flooded paddy, preemergence weed control; format: in vivo, Rottb.; details: rated 3-4 weeks after treatment, 0-9 rating scale
In short: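 Herbicidal effect was scored visually on a 0–9 scale against an untreated control 3–4 weeks after treatment. Compounds were applied preemergence as 50/50 v/v aqueous/acetone mixtures into flood water (1.5–3 cm deep over silt loam), at roughly 0.0080 to 0.1250 kg/ha active ingredient.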

[14] = system: GLXMAW (Soybean, Williams); test: Postemergence herbicidal evaluation; format: in vivo, Glycine max, (L.) Merr. cv Williams
In short: as §2

[15] = system: MOOVA (Monochoria vaginalis); test: Flooded paddy, preemergence weed control; format: in vivo, Presl.; details: rated 3-4 weeks after treatment, 0-9 rating scale
In short: as §3

[16] = system: ECHCG (Echinochloa crus-galli); test: Postemergence herbicidal evaluation; format: in vivo, (L.) Beau
In short: as §2

ORYSAT (Rice, Tebonnet) [17] = test: Postemergence herbicidal evaluation; format: in vivo, Oryza sativa, (L.) Tebonnet
In short: as §2

CCOC(=O)C1CS[C@H](c2nsc3ccc(-n4c(=O)cc(C(F)(F)F)n(C)c4=O)cc23)N1 (stereo partly drawn) [Compound 2, ethyl (R)-2-[5-[3,6-dihydro-3-methyl-2,6-dioxo-4-(trifluoromethyl)-1(2H)-pyrimidinyl]-1,2-benzisothiazol-3-yl]-4-thiazolidinecarboxylate]
5.0: GALAP preemergence herbicidal rating (GALAP (Galium aparine); Rate 0.0620 kg/ha) | Postemergence herbicidal rating, TRZAWR ([1]; rate 0.0320 kg/ha) | TRZAWR preemergence herbicidal rating ([5]; Rate 0.1250 kg/ha) | CASOB preemergence herbicidal rating ([9]; Rate 0.0620 kg/ha) | Postemergence herbicidal rating, ORYSAT (ORYSAT (Rice, Tebonnet) [17]; rate 0.0320 kg/ha)
2.0: TRZAWR preemergence herbicidal rating ([5]; Rate 0.0620 kg/ha) | herbicidal rating, ECHORC ([11]; rate 0.1250 kg/ha)
7.0: Postemergence herbicidal rating, ZEAMX (ZEAMX (Corn, Field); rate 0.0320 kg/ha) | Postemergence herbicidal rating, ZEAMX (ZEAMX (Corn, Field); rate 0.0620 kg/ha) | Postemergence herbicidal rating, SETVI (SETVI (Setaria viridis) [2]; rate 0.0620 kg/ha) | TRZAWR preemergence herbicidal rating ([5]; Rate 0.2500 kg/ha) | ORYSAT preemergence herbicidal rating (ORYSAT (Rice, Tebonnet) [7]; Rate 0.2500 kg/ha) | CASOB preemergence herbicidal rating ([9]; Rate 0.2500 kg/ha) | AMBEL preemergence herbicidal rating ([10]; Rate 0.0620 kg/ha) | Postemergence herbicidal rating, GLXMAW ([14]; rate 0.0320 kg/ha)
9.0: GALAP preemergence herbicidal rating (GALAP (Galium aparine); Rate 0.1250 kg/ha) | GALAP preemergence herbicidal rating (GALAP (Galium aparine); Rate 0.2500 kg/ha) | SETVI preemergence herbicidal rating (SETVI (Setaria viridis) [3]; Rate 0.2500 kg/ha) | Postemergence herbicidal rating, IPOHE ([6]; rate 0.0320 kg/ha) | Postemergence herbicidal rating, IPOHE ([6]; rate 0.0620 kg/ha) | CHEAL preemergence herbicidal rating ([8]; Rate 0.0620 kg/ha) | CHEAL preemergence herbicidal rating ([8]; Rate 0.1250 kg/ha) | CHEAL preemergence herbicidal rating ([8]; Rate 0.2500 kg/ha) | AMBEL preemergence herbicidal rating ([10]; Rate 0.2500 kg/ha) | ABUTH preemergence herbicidal rating ([12]; Rate 0.0620 kg/ha) | ABUTH preemergence herbicidal rating ([12]; Rate 0.1250 kg/ha) | ABUTH preemergence herbicidal rating ([12]; Rate 0.2500 kg/ha) | herbicidal rating, MOOVA ([15]; rate 0.1250 kg/ha)
8.0: SETVI preemergence herbicidal rating (SETVI (Setaria viridis) [3]; Rate 0.0620 kg/ha) | SETVI preemergence herbicidal rating (SETVI (Setaria viridis) [3]; Rate 0.1250 kg/ha) | ECHCG preemergence herbicidal rating ([4]; Rate 0.2500 kg/ha) | AMBEL preemergence herbicidal rating ([10]; Rate 0.1250 kg/ha)
7.5: CASOB preemergence herbicidal rating ([9]; Rate 0.1250 kg/ha) | Postemergence herbicidal rating, GLXMAW ([14]; rate 0.0620 kg/ha)
2.5: ECHCG preemergence herbicidal rating ([4]; Rate 0.0620 kg/ha)
0.0: herbicidal rating, ECHORC ([11]; rate 0.0320 kg/ha) | herbicidal rating, CYPSE ([13]; rate 0.0320 kg/ha) | herbicidal rating, CYPSE ([13]; rate 0.1250 kg/ha)
6.0: Postemergence herbicidal rating, SETVI (SETVI (Setaria viridis) [2]; rate 0.0320 kg/ha) | ECHCG preemergence herbicidal rating ([4]; Rate 0.1250 kg/ha) | ORYSAT preemergence herbicidal rating (ORYSAT (Rice, Tebonnet) [7]; Rate 0.1250 kg/ha) | herbicidal rating, MOOVA ([15]; rate 0.0320 kg/ha)
4.0: Postemergence herbicidal rating, ECHCG ([16]; rate 0.0620 kg/ha)
6.5: Postemergence herbicidal rating, TRZAWR ([1]; rate 0.0620 kg/ha) | Postemergence herbicidal rating, ORYSAT (ORYSAT (Rice, Tebonnet) [17]; rate 0.0620 kg/ha)
3.0: ORYSAT preemergence herbicidal rating (ORYSAT (Rice, Tebonnet) [7]; Rate 0.0620 kg/ha) | Postemergence herbicidal rating, ECHCG ([16]; rate 0.0320 kg/ha)

Reference: US6706663B2, “Herbicidal 3-heterocyclic substituted benzisothiazole and benzisoxazole compounds” (Wyeth, priority 2000, dated 2004)
